Experiment [1] has as its target T1, Cytochrome P450 11B1, mitochondrial (Homo sapiens, UniProt P15538).
T1 sequence (P15538 whole entry): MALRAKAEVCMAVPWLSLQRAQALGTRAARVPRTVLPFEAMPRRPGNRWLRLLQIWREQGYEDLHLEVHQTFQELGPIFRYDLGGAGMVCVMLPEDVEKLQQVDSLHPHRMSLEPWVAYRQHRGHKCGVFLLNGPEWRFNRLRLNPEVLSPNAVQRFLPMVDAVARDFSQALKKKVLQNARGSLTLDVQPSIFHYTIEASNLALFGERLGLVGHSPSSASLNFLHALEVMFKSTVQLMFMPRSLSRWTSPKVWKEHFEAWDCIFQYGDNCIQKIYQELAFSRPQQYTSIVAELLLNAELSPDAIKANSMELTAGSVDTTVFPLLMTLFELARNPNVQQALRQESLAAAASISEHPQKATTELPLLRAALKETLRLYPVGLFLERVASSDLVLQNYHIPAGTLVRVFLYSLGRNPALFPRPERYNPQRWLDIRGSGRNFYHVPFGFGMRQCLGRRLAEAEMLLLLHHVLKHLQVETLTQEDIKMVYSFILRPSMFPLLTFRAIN
Nature of the experiment: Inhibition of CYP11B1 (unknown origin) expressed in Chinese hamster V79MZ cells using [1,2-3H]-11-deoxycorticosterone as substrate at 500 nM preincubated for 60 mins followed by substrate addition measured after 25 mins by HPLC analysis relative to control. It is filed as cell-based.

In experiment [2] the target is T2, Cytochrome P450 11B2, mitochondrial (Homo sapiens, UniProt P19099).
T2 sequence (P19099 whole entry): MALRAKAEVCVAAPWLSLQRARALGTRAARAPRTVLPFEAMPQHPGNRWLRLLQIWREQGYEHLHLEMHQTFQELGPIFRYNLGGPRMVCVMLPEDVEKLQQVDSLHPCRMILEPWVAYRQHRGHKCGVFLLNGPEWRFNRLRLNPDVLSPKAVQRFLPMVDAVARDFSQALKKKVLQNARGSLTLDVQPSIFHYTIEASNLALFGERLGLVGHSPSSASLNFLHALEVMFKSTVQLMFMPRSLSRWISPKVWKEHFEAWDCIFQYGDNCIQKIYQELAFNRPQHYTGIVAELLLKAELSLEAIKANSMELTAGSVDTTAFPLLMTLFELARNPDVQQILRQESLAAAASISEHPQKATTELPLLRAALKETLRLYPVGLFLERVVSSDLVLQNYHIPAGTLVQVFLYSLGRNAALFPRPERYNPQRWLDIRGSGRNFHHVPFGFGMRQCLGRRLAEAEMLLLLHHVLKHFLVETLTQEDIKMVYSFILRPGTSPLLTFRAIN
Nature of the experiment: Inhibition of CYP11B2 (unknown origin) expressed in Chinese hamster V79MZ cells using [1,2-3H]-11-deoxycorticosterone as substrate at 500 nM preincubated for 60 mins followed by substrate addition measured after 50 mins by HPLC analysis relative to control. It is filed as cell-based.

For experiment [3], the target named is T3, Aromatase (Homo sapiens, UniProt P11511).
T3 sequence (P11511 whole entry): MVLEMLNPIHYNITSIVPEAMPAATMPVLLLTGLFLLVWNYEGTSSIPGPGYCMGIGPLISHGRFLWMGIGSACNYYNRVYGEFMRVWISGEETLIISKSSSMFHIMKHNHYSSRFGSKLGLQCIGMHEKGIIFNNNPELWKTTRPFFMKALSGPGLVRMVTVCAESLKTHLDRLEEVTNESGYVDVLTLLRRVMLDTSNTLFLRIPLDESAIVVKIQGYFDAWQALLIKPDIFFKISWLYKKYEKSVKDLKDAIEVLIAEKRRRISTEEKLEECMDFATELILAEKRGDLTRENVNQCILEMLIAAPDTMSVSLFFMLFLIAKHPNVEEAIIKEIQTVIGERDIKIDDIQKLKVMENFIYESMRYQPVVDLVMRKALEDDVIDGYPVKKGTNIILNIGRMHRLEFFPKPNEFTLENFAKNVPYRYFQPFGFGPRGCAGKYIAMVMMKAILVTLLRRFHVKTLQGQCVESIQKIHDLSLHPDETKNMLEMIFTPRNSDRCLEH
Nature of the experiment: Inhibition of CYP19 isolated from microsomal fraction of human term placental tissue using [1beta-3H] androstenedione as substrate preincubated for 5 mins followed by enzyme addition measured after 20 mins by beta scintillation counting analysis.

Experiment [4] has as its target T3, Aromatase. Kind of experiment: Inhibition of CYP19 isolated from microsomal fraction of human term placental tissue using [1beta-3H] androstenedione as substrate at 2 uM preincubated for 5 mins followed by enzyme addition measured after 20 mins by beta scintillation counting analysis relative to control.
Experiment [5] concerns the target T4, Steroid 17-alpha-hydroxylase/17,20 lyase (Homo sapiens, UniProt P05093).
T4 sequence (P05093 whole entry): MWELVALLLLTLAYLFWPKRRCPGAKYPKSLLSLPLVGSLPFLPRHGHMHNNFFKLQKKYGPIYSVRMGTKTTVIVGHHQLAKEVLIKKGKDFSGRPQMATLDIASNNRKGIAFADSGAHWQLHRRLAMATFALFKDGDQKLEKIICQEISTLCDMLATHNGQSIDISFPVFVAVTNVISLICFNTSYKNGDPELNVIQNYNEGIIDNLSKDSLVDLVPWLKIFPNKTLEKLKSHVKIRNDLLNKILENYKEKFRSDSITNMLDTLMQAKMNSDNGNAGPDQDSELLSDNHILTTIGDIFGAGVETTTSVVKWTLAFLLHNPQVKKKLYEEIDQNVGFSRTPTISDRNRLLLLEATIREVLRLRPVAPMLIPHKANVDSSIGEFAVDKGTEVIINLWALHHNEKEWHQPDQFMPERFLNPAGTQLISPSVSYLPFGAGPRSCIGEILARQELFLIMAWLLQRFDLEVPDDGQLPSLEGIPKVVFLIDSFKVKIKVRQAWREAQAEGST
Nature of the experiment: Inhibition of human CYP17 expressed in Escherichia coli using progesterone as substrate at 2 uM preincubated for 5 mins followed by enzyme addition measured after 30 mins by HPLC analysis relative to control. Particulars: 0.5 h.

Experiment [6] has as its target T1, Cytochrome P450 11B1, mitochondrial. Nature of the experiment: Inhibition of CYP11B1 (unknown origin) expressed in Chinese hamster V79MZ cells using [1,2-3H]-11-deoxycorticosterone as substrate preincubated for 60 mins followed by substrate addition measured after 25 mins by HPLC analysis. Format: cell-based.

This is an account of results in ChEMBL document CHEMBL3217591, “Synthesis and biological evaluation of imidazolylmethylacridones as cytochrome P-450 enzymes inhibitors” (Medchemcomm, 2012).

One may read the inhibition as the drop in the measured response relative to a control, in per cent. Low readings indicate little suppression, high ones strong suppression. For orientation: IC50 means the midpoint of a concentration-inhibition curve. Higher therefore signals lower potency.

The structures appear in SMILES notation.

Consider `O=c1c2ccccc2[nH]c2c(Cn3ccnc3)cccc12`, for which the inhibition at 0.5 µM was found to be 97.5% in experiment [1] and 40.8% in experiment [2]. In addition, the values for the IC50 (at Aromatase [3]; in experiment [6]) were 14.4 nM and 21.2 nM, respectively. Besides, the inhibition at 2 µM at Aromatase [4] was determined as 95.5%; in experiment [5], 1.4%.

As to `O=c1c2ccccc2[nH]c2ccc(Cn3ccnc3)cc12`, the inhibition at 0.5 µM in experiment [1] was 40.7%; in experiment [2], 3.4%. Moreover, the inhibition at 2 µM (on Aromatase [4]; in experiment [5]) was 0% in each case.

As to `N#Cc1ccc(C(c2ccc(C#N)cc2)n2cncn2)cc1` [LETROZOLE], the inhibition at 0.5 µM in experiment [1] was found to be 16.4%; in experiment [2] it was 25.6%. Also, the figures for the inhibition at 2 µM (against Aromatase [4]; in experiment [5]) were 99% and 6.8%, respectively.

Regarding `CC(C)(C(=O)c1cccnc1)c1cccnc1` [METYRAPONE], the inhibition at 0.5 µM worked out at 98% in experiment [1] and 95% in experiment [2]. Moreover, at Aromatase [4], testing at 2 µM gave an inhibition of 0%.
